The test system of the test is Mycobacterium tuberculosis. The test can be described thus: Antitubercular activity against Multidrug-resistant Mycobacterium tuberculosis H37Rv assessed as reduction in microbial growth by broth dilution method. It is filed as functional. On the technique in general: Broth dilution looks for growth in wells or tubes with falling amounts of substance.
What is called MIC is the lowest concentration found to suppress growth. As to `Cc1ccc(C)n1-c1ccc(C(=O)n2[nH]c(=O)c3ccccc3c2=O)cc1`, the MIC turned out to be 0.4 µg/mL.

Turning to `CCOc1cc(C2OC(c3ccc(-n4cccc4)cc3)=NN2C(C)=O)ccc1O` (stereo not given), the MIC came out at 0.2 µg/mL.

As to `CO[C@H]1/C=C/O[C@@]2(C)Oc3c(C)c(O)c4c(O)c(c(/C=N/N5CCN(C)CC5)c(O)c4c3C2=O)NC(=O)/C(C)=C\C=C\[C@H](C)[C@H](O)[C@@H](C)[C@@H](O)[C@@H](C)[C@H](OC(C)=O)[C@@H]1C` [RIFAMPIN], the MIC was 25 µg/mL.

Turning to `NNC(=O)c1ccncc1` [ISONIAZID], the minimal inhibitory concentration (MIC) came out at 12.5 µg/mL.

On to `CC[C@@H](CO)NCCN[C@@H](CC)CO` [ETHAMBUTOL], for which the MIC amounted to 12.5 µg/mL.

These data come from ChEMBL document CHEMBL5244216, “Pyrrole: An insight into recent pharmacological advances with structure activity relationship” (Eur J Med Chem, 2018).
